According to patent publication US20240376094A2, “SELECTIVE BCL-XL PROTAC COMPOUNDS AND METHODS OF USE” (Les Laboratoires Servier, priority 2021, published 2024):

What was measured:
Type in all cases: cell-based
COR-L105 = assay: CellTiter-Glo proliferation assay, COR-L105; settings: Homo sapiens, COR-L105, 120 h, COR-L105, 5 days; for Emax: read-out: COR-L105 Span (max)
How it was run: (§1)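 Both lines grown in RPMI-1640 + 10% FBS. COR-L105 plated flat at 1,000 cells/well overnight; NCI-H1650 grown as spheroids, 3,000 cells/well, 72 h. Compounds at 0.508 nM-10 μM final for 5 days, 37° C. ATP read by CellTiter-Glo (3D version for spheroids); IC50 from variable-slope fit normalized to untreated cells.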

NCI-H1650 = assay: CellTiter-Glo 3D proliferation assay, NCI-H1650 spheroids; settings: Homo sapiens, NCI-H1650, 120 h, 5 days; for Emax: read-out: NCI-H1650 Span (Amax)
How it was run: as §1

endogenous BCL-xL = biological target: T1, endogenous BCL-xL (Homo sapiens, UniProt Q07817); assay: Degradation of endogenous BCL-xL in COR-L105 (ProteinSimple Jess); settings: COR-L105, 24 h, COR-L105, dose 300 nM, read-out: % BCL-xL vs. Untreated, COR-L105
T1 construct: endogenous in cells; host or cells: COR-L105 (ECACC No. 92031918); NCI-H1650 (ATCC No. CRL-5883)
T1 sequence (Q07817 whole entry): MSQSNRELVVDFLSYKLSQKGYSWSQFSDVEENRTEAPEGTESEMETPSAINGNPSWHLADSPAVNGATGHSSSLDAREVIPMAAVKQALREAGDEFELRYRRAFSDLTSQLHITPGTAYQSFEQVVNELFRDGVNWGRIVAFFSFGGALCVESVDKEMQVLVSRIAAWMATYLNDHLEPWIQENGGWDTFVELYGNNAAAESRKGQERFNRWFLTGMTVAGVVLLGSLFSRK
Experimental: The BCL-xL degrader low molecular weight compounds were tested against two endogenous cancer cell lines: • COR-L105: ECACC No. 92031918 cultured in RPMI-1640+10% FBS • NCI-H1650: (ATCC No. CRL-5883 cultured in RPMI-1640+10% FBS
The ability of the BCL-xL degrader low molecular weight compounds to degrade endogenous BCL-xL was assessed using the ProteinSimple 2-40 kDa Jess Separation Module.
Cell lines were cultured in media that is optimal for their growth at 5% CO2, 37° C. in a tissue culture incubator. Prior to seeding for the degradation assay, the cells were split at least 2 days before the assay to ensure optimal growth density. On the day of seeding, adherent cells were lifted off tissue culture flasks using 0.25% trypsin. Cell viability and cell density were determined using a cell counter (Vi-Cell XR Cell Viability Analyzer, Beckman Coulter). Cells with higher than 85% viability were seeded for the assay.
The COR-L105 and the NCI-H1650 cell line were seeded in 6-well clear TC-treated multiple well plates (Costar® cat. #3516). Cells were seeded at a density of 2,000,000 cells per well in 2.5 mL of standard growth media. Plates were incubated at 5% CO2, 37° C. overnight in a tissue culture incubator. On the day of dosing, BCL-xL degrader low molecular weight compounds and a BCL-xL inhibitor control were prepared at 6× in standard growth media. The prepared drug treatments were then added to the cells resulting in a final concentration of 100-300 nM and a final volume of 3.0 mL per well. A control well of untreated cells was also included in the study. Each drug concentration was tested in singlet. Plates were incubated at 5% CO2, 37° C. for 24 hours in a tissue culture incubator.
After 24 hours, the adherent cells were lifted off tissue culture plates using 0.25% trypsin. Standard growth media was added to quench the trypsin and centrifuged for 5 minutes at 1500 rpm. Cell pellets were washed once with cold PBS and centrifuged for 5 minutes at 1500 rpm. Cells were then washed with 1 mL cold PBS and transferred to a 1.5 mL eppendorf tube. Cells were centrifuged for 10 minutes at ≥10,000 g at 4° C. in a benchtop mini-centrifuge. The entire supernatant was discarded and cells were resuspended thoroughly in 50 μL of RIPA lysis buffer, generated by the manufacturer's protocol (ProteinSimple, Cat. #CBS401: Lysis Kit—RIPA Buffer for Charge Assays). Lysates were incubated on ice for 30 minutes. Following incubation, lysates were spun in a benchtop mini-centrifuge for 15 minutes at full speed at 4° C. Supernatant was carefully transferred to a new eppendorf tube for downstream analysis.
Protein was quantified using a Pierce™ BCA Protein Assay Kit (ThermoFisher, cat #23225) following the manufacturer's instructions. A standard curve was prepared by adding 25 μL of each concentration of reference samples from a Pierce™ Bovine Serum Albumin Standard Pre-Diluted Set (ThermoFisher, cat #23208). Each reference sample was run in duplicate. Testing samples were prepared by diluting cell lysates 1:5 in UltraPure™ DNase/RNase-Free Distilled Water and tested in duplicates of 25 μL each. The BCA working reagent was prepared by addition of 50 parts of BCA Reagent A with 1 part of BCA Reagent B. For each testing well, 200 μL of BCA working reagent was added. The plate was incubated at 37° C. for 30 minutes. A SpectraMax M Series Multi-Mode Microplate Reader was used to measure the absorbance at 562 nm. A standard curve generated by the Pierce™ Bovine Serum Albumin Standard Pre-Diluted Set was used to normalize and calculate the BCA concentration of cell lysates. Only values that fell within the range of the standard curve were accepted for quantification.
The ProteinSimple 2-40 kDa Jess Separation Module was used to detect BCL-xL degradation in treated versus untreated lysates following the manufacturer's instructions (25-Capillary Cartridge, 8 pack, 2-40 kDa, cat #SM W012). […]

Row | SMILES | IC50 (COR-L105) [nM] | Emax (COR-L105) [%] | IC50 (NCI-H1650) [nM] | Emax (NCI-H1650) [%] | remaining activity at 0.3 µM (endogenous BCL-xL) [%]
1 | Cc1ncsc1-c1ccc([C@H](C)NC(=O)[C@@H]2C[C@@H](O)CN2C(=O)[C@@H](NC(=O)CCCCCCCC(=O)N2CCN(CC#Cc3ccc(OCCCc4sc(N5CCCc6c5nnc(Nc5nc7ccccc7s5)c6C)nc4C(=O)O)c(F)c3)CC2)C(C)(C)C)cc1 [Example 38, 2-(3-(benzo[d]thiazol-2-ylamino)-4-methyl-6,7-dihydropyrido [2,3-c]pyridazin-8(5H)-yl)-5-(3-(2-fluoro-4-(3-(4-(9-(((S)-1-((2S,4R)-4-hydroxy-2-(((S)-1-(4-(4-methylthiazol-5-yl)phenyl)ethyl)carbamoyl)pyrrolidin-1-yl)-3,3-dimethyl-1-oxobutan-2-yl)amino)-9-oxononanoyl)piperazin-1-yl)prop-1-yn-1-yl)phenoxy)propyl)thiazole-4-carboxylic acid] | 83.1 | 87.4 | 8.15 | 87.9 | 22.1
2 | Cc1ncsc1-c1ccc([C@H](C)NC(=O)[C@@H]2C[C@@H](O)CN2C(=O)[C@@H](NC(=O)CC2(CC(=O)N3CCN(CC#Cc4ccc(OCCCc5sc(N6CCCc7c6nnc(Nc6nc8ccccc8s6)c7C)nc5C(=O)O)c(F)c4)CC3)CCCC2)C(C)(C)C)cc1 [Example 39, 2-(3-(benzo[d]thiazol-2-ylamino)-4-methyl-6,7-dihydropyrido [2,3-c]pyridazin-8(5H)-yl)-5-(3-(2-fluoro-4-(3-(4-(2-(1-(2-(((S)-1-((2S,4R)-4-hydroxy-2-(((S)-1-(4-(4-methylthiazol-5-yl)phenyl)ethyl)carbamoyl)pyrrolidin-1-yl)-3,3-dimethyl-1-oxobutan-2-yl)amino)-2-oxoethyl)cyclopentyl)acetyl)piperazin-1-yl)prop-1-yn-1-yl)phenoxy)propyl) thiazole-4-carboxylic acid] | 524 | 95.3 | 38.4 | 96.4 | 63.6
3 | Cc1ncsc1-c1ccc(CNC(=O)[C@@H]2C[C@@H](O)CN2C(=O)[C@@H](NC(=O)COCCOCCOCC(=O)N2CCN(CC#Cc3ccc(OCCCc4sc(N5CCCc6c5nnc(Nc5nc7ccccc7s5)c6C)nc4C(=O)O)c(F)c3)CC2)C(C)(C)C)cc1 [Example 40, 2-(3-(benzo[d]thiazol-2-ylamino)-4-methyl-6,7-dihydropyrido [2,3-c]pyridazin-8(5H)-yl)-5-(3-(2-fluoro-4-(3-(4-((S)-13-((2S,4R)-4-hydroxy-2-((4-(4-methylthiazol-5-yl)benzyl)carbamoyl)pyrrolidine-1-carbonyl)-14,14-dimethyl-11-oxo-3,6,9-trioxa-12-azapentadecanoyl)piperazin-1-yl)prop-1-yn-1-yl)phenoxy)propyl)thiazole-4-carboxylic acid] | 107 | 82.1 | 15.6 | 87.3 | 71.4
4 | Cc1ncsc1-c1ccc([C@H](C)NC(=O)[C@@H]2C[C@@H](O)CN2C(=O)[C@@H](NC(=O)C2CC3(C2)CC(C(=O)N2CCN(CC#Cc4ccc(OCCCc5sc(N6CCCc7c6nnc(Nc6nc8ccccc8s6)c7C)nc5C(=O)O)c(F)c4)CC2)C3)C(C)(C)C)cc1 (stereo partly drawn) [Example 41, 2-(3-(benzo[d]thiazol-2-ylamino)-4-methyl-6,7-dihydropyrido [2,3-c]pyridazin-8(5H)-yl)-5-(3-(2-fluoro-4-(3-(4-(6-(((S)-1-((2S,4R)-4-hydroxy-2-(((S)-1-(4-(4-methylthiazol-5-yl)phenyl)ethyl)carbamoyl)pyrrolidin-1-yl)-3,3-dimethyl-1-oxobutan-2-yl)carbamoyl)spiro[3.3]heptane-2-carbonyl)piperazin-1-yl)prop-1-yn-1-yl)phenoxy)propyl) thiazole-4-carboxylic acid] | 220 | 88.2 | 8.83 | 106 | 30.3
5 | Cc1ncsc1-c1ccc([C@H](C)NC(=O)[C@@H]2C[C@@H](O)CN2C(=O)[C@@H](NC(=O)c2ccc(C(=O)N3CCN(CC#Cc4ccc(OCCCc5sc(N6CCCc7c6nnc(Nc6nc8ccccc8s6)c7C)nc5C(=O)O)c(F)c4)CC3)cc2F)C(C)(C)C)cc1 [Example 43, 2-(3-(benzo[d]thiazol-2-ylamino)-4-methyl-6,7-dihydropyrido [2,3-c]pyridazin-8(5H)-yl)-5-(3-(2-fluoro-4-(3-(4-(3-fluoro-4-(((S)-1-((2S,4R)-4-hydroxy-2-(((S)-1-(4-(4-methylthiazol-5-yl)phenyl)ethyl)carbamoyl)pyrrolidin-1-yl)-3,3-dimethyl-1-oxobutan-2-yl)carbamoyl)benzoyl)piperazin-1-yl)prop-1-yn-1-yl)phenoxy)propyl)thiazole-4-carboxylic acid] | 74.8 | 85.9 | 4.22 | 80.3 | 19.9
6 | Cc1ncsc1-c1ccc(CNC(=O)[C@@H]2C[C@@H](O)CN2C(=O)[C@@H](NC(=O)CCCCCCCCCCC(=O)N2CCN(CC#Cc3ccc(OCCCc4sc(N5CCCc6c5nnc(Nc5nc7ccccc7s5)c6C)nc4C(=O)O)c(F)c3)CC2)C(C)(C)C)c(O)c1 [Example 45, 2-(3-(benzo[d]thiazol-2-ylamino)-4-methyl-6,7-dihydropyrido [2,3-c]pyridazin-8(5H)-yl)-5-(3-(2-fluoro-4-(3-(4-(12-(((S)-1-((2S,4R)-4-hydroxy-2-((2-hydroxy-4-(4-methylthiazol-5-yl)benzyl)carbamoyl)pyrrolidin-1-yl)-3,3-dimethyl-1-oxobutan-2-yl)amino)-12-oxododecanoyl)piperazin-1-yl)prop-1-yn-1-yl)phenoxy)propyl)thiazole-4-carboxylic acid] | 68.3 | 83 | 6.27 | 81.2 | 40.1
7 | Cc1ncsc1-c1ccc([C@H](C)NC(=O)[C@@H]2C[C@@H](O)CN2C(=O)[C@@H](NC(=O)CCC(=O)N2CCN(CCOC34CC5(C)CC(C)(CC(Cn6ncc(-c7ccc(N8CCCc9c8nnc(Nc8nc%10ccccc%10s8)c9C)nc7C(=O)O)c6C)(C5)C3)C4)CC2)C(C)(C)C)cc1 [Example 49, 6-(3-(benzo[d]thiazol-2-ylamino)-4-methyl-6,7-dihydropyrido [2,3-c]pyridazin-8(5H)-yl)-3-(1-(((1r,3s,5R,7S)-3-(2-(4-(4-(((S)-1-((2S,4R)-4-hydroxy-2-(((S)-1-(4-(4-methylthiazol-5-yl)phenyl)ethyl)carbamoyl)pyrrolidin-1-yl)-3,3-dimethyl-1-oxobutan-2-yl)amino)-4-oxobutanoyl)piperazin-1-yl)ethoxy)-5,7-dimethyladamantan-1-yl)methyl)-5-methyl-1H-pyrazol-4-yl)picolinic acid] | 311 | 92.1 | 44.1 | 89 | > 90
